How the values were obtained:
Format in all cases: in vivo
[1] = test system: Chemotherapeutic agent-caused diarrhea models of Balb/c mice; test: Examples 1-229 (Table 3): oral CDK inhibitor, relief of diarrhea caused by a chemotherapeutic agent;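 note: percent of treated mice whose diarrhea grade fell below chemotherapy-group average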
[2] = test system: Chemotherapeutic agent-caused constipation models of Balb/c mice; test: Examples 272-342 (Table 5): oral CDK inhibitor, relief of constipation caused by a chemotherapeutic agent;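 note: percent of treated mice relieved versus chemotherapy group by feces reduction rate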
Outline: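 Balb/c mice, 10 per group: control, chemotherapeutic agent alone, or intragastric CDK inhibitor followed by the chemotherapeutic agent. Feces produced within 3 hours were recorded daily, and feces reduction rate (%) was calculated relative to the control group.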

[3] = test system: constipation caused by a chemotherapeutic agent in Balb/c mice; test: Examples 406-443 (Table 8): various administration modes of the CDK inhibitor, relief of constipation caused by a chemotherapeutic agent;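 for Relative remission rate of oral administration: percent of treated mice relieved versus chemotherapy group by feces reduction rate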;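 for Relative remission rate of other administration mode: percent of treated mice relieved versus chemotherapy group by feces reduction rate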
Outline: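 Balb/c mice (10 per group) received the CDK inhibitor orally, intravenously via the tail vein, intraperitoneally, intramuscularly, or topically on shaved abdominal skin, followed by a chemotherapeutic agent; vehicle groups served as controls. Feces amount over 3 h was recorded daily. Feces reduction rate was calculated relative to the control group.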

## CN1CCN(c2ccc(Nc3ncc4cc5n(c4n3)C3(CCCCC3)CNC5=O)nc2)CC1 [Trilaciclib (G1T28), Trilaciclib]
[1]; Example 49, Oxaliplatin intraperitoneal injection 20 mg/kg single, CDK inhibitor oral 100 mg/kg single 0.5 h before, cycle 8 days
  Relative remission rate (%): 60%
[1]; Example 50, Oxaliplatin intraperitoneal injection 20 mg/kg single, CDK inhibitor oral 100 mg/kg single 1 h before, cycle 8 days
  Relative remission rate (%): 50%
[1]; Example 51, Oxaliplatin intraperitoneal injection 20 mg/kg single, CDK inhibitor oral 100 mg/kg single 2 h before, cycle 8 days
  Relative remission rate (%): 40%
[1]; Example 52, Oxaliplatin intraperitoneal injection 20 mg/kg single, CDK inhibitor oral 100 mg/kg single 3 h before, cycle 8 days
  Relative remission rate (%): 60%
[1]; Example 53, Oxaliplatin intraperitoneal injection 20 mg/kg single, CDK inhibitor oral 100 mg/kg single 4 h before, cycle 8 days
  Relative remission rate (%): 50%
[1]; Example 54, Oxaliplatin intraperitoneal injection 20 mg/kg single, CDK inhibitor oral 100 mg/kg single 5 h before, cycle 8 days
  Relative remission rate (%): 30%
[1]; Example 55, Oxaliplatin intraperitoneal injection 20 mg/kg single, CDK inhibitor oral 100 mg/kg single 6 h before, cycle 8 days
  Relative remission rate (%): 80%
[1]; Example 56, Oxaliplatin intraperitoneal injection 20 mg/kg single, CDK inhibitor oral 100 mg/kg single 7 h before, cycle 8 days
  Relative remission rate (%): 60%
[1]; Example 57, Oxaliplatin intraperitoneal injection 20 mg/kg single, CDK inhibitor oral 100 mg/kg single 8 h before, cycle 8 days
  Relative remission rate (%): 60%
[1]; Example 58, Oxaliplatin intraperitoneal injection 20 mg/kg single, CDK inhibitor oral 100 mg/kg single 9 h before, cycle 8 days
  Relative remission rate (%): 80%
[1]; Example 59, Oxaliplatin intraperitoneal injection 20 mg/kg single, CDK inhibitor oral 100 mg/kg single 10 h before, cycle 8 days
  Relative remission rate (%): 70%
[1]; Example 60, Oxaliplatin intraperitoneal injection 20 mg/kg single, CDK inhibitor oral 100 mg/kg single 11 h before, cycle 8 days
  Relative remission rate (%): 70%
[1]; Example 61, Oxaliplatin intraperitoneal injection 20 mg/kg single, CDK inhibitor oral 100 mg/kg single 12 h before, cycle 8 days
  Relative remission rate (%): 50%
[1]; Example 62, Oxaliplatin intraperitoneal injection 20 mg/kg single, CDK inhibitor oral 100 mg/kg single 14 h before, cycle 8 days
  Relative remission rate (%): 60%
[1]; Example 63, Oxaliplatin intraperitoneal injection 20 mg/kg single, CDK inhibitor oral 100 mg/kg single 16 h before, cycle 8 days
  Relative remission rate (%): 80%
[1]; Example 64, Oxaliplatin intraperitoneal injection 20 mg/kg single, CDK inhibitor oral 100 mg/kg single 18 h before, cycle 8 days
  Relative remission rate (%): 80%
[1]; Example 65, Oxaliplatin intraperitoneal injection 20 mg/kg single, CDK inhibitor oral 100 mg/kg single 20 h before, cycle 8 days
  Relative remission rate (%): 70%
[1]; Example 66, Oxaliplatin intraperitoneal injection 20 mg/kg single, CDK inhibitor oral 100 mg/kg single 22 h before, cycle 8 days
  Relative remission rate (%): 50%
[1]; Example 67, Oxaliplatin intraperitoneal injection 20 mg/kg single, CDK inhibitor oral 100 mg/kg single 24 h before, cycle 8 days
  Relative remission rate (%): 50%
[1]; Example 68, Oxaliplatin intraperitoneal injection 20 mg/kg single, CDK inhibitor oral 100 mg/kg single 48 h before, cycle 8 days
  Relative remission rate (%): 0%
[1]; Example 127, Irinotecan (CPT-11) intramuscular injection 240 mg/kg single, CDK inhibitor oral 50 mg/kg single 1 h before, cycle 7 days
  Relative remission rate (%): 70%
[1]; Example 170, Gemcitabine (GEM) intraperitoneal injection 120 mg/kg single, CDK inhibitor oral 60 mg/kg single 0.5 h before, cycle 8 days
  Relative remission rate (%): 50%
[1]; Example 171, Gemcitabine (GEM) intraperitoneal injection 120 mg/kg single, CDK inhibitor oral 60 mg/kg single 1 h before, cycle 8 days
  Relative remission rate (%): 50%
[1]; Example 172, Gemcitabine (GEM) intraperitoneal injection 120 mg/kg single, CDK inhibitor oral 60 mg/kg single 2 h before, cycle 8 days
  Relative remission rate (%): 40%
[1]; Example 173, Gemcitabine (GEM) intraperitoneal injection 120 mg/kg single, CDK inhibitor oral 60 mg/kg single 4 h before, cycle 8 days
  Relative remission rate (%): 60%
[1]; Example 174, Gemcitabine (GEM) intraperitoneal injection 120 mg/kg single, CDK inhibitor oral 60 mg/kg single 6 h before, cycle 8 days
  Relative remission rate (%): 50%
[1]; Example 175, Gemcitabine (GEM) intraperitoneal injection 120 mg/kg single, CDK inhibitor oral 60 mg/kg single 8 h before, cycle 8 days
  Relative remission rate (%): 50%
[1]; Example 176, Gemcitabine (GEM) intraperitoneal injection 120 mg/kg single, CDK inhibitor oral 60 mg/kg single 10 h before, cycle 8 days
  Relative remission rate (%): 50%
[1]; Example 177, Gemcitabine (GEM) intraperitoneal injection 120 mg/kg single, CDK inhibitor oral 60 mg/kg single 12 h before, cycle 8 days
  Relative remission rate (%): 40%
[1]; Example 178, Gemcitabine (GEM) intraperitoneal injection 120 mg/kg single, CDK inhibitor oral 60 mg/kg single 14 h before, cycle 8 days
  Relative remission rate (%): 60%
[1]; Example 193, Gemcitabine (GEM) oral administration 300 mg/kg single, CDK inhibitor oral 200 mg/kg single, 2 h before, 8 days
  Relative remission rate (%): 60%
[1]; Example 227, Topotecan intravenous injection 20 mg/kg single, CDK inhibitor oral 100 mg/kg single, 0.5 h before, 14 days
  Relative remission rate (%): 70%
[2]; Example 272, Fluorouracil (5-Fu) intraperitoneal injection 175 mg/kg single, CDK inhibitor oral 100 mg/kg single, 0.5 h before, cycle 7 days
  Relative remission rate: 50%
[2]; Example 273, Fluorouracil (5-Fu) intraperitoneal injection 175 mg/kg single, CDK inhibitor oral 100 mg/kg single, 1 h before, cycle 7 days
  Relative remission rate: 50%
[2]; Example 274, Fluorouracil (5-Fu) intraperitoneal injection 175 mg/kg single, CDK inhibitor oral 100 mg/kg single, 2 h before, cycle 7 days
  Relative remission rate: 50%
[2]; Example 275, Fluorouracil (5-Fu) intraperitoneal injection 175 mg/kg single, CDK inhibitor oral 100 mg/kg single, 3 h before, cycle 7 days
  Relative remission rate: 40%
[2]; Example 276, Fluorouracil (5-Fu) intraperitoneal injection 175 mg/kg single, CDK inhibitor oral 100 mg/kg single, 4 h before, cycle 7 days
  Relative remission rate: 60%
[2]; Example 277, Fluorouracil (5-Fu) intraperitoneal injection 175 mg/kg single, CDK inhibitor oral 100 mg/kg single, 5 h before, cycle 7 days
  Relative remission rate: 40%
[2]; Example 278, Fluorouracil (5-Fu) intraperitoneal injection 175 mg/kg single, CDK inhibitor oral 100 mg/kg single, 6 h before, cycle 7 days
  Relative remission rate: 60%
[2]; Example 279, Fluorouracil (5-Fu) intraperitoneal injection 175 mg/kg single, CDK inhibitor oral 100 mg/kg single, 7 h before, cycle 7 days
  Relative remission rate: 70%
[2]; Example 280, Fluorouracil (5-Fu) intraperitoneal injection 175 mg/kg single, CDK inhibitor oral 100 mg/kg single, 8 h before, cycle 7 days
  Relative remission rate: 70%
[2]; Example 281, Fluorouracil (5-Fu) intraperitoneal injection 175 mg/kg single, CDK inhibitor oral 100 mg/kg single, 9 h before, cycle 7 days
  Relative remission rate: 60%
[2]; Example 282, Fluorouracil (5-Fu) intraperitoneal injection 175 mg/kg single, CDK inhibitor oral 100 mg/kg single, 10 h before, cycle 7 days
  Relative remission rate: 60%
[2]; Example 283, Fluorouracil (5-Fu) intraperitoneal injection 175 mg/kg single, CDK inhibitor oral 100 mg/kg single, 11 h before, cycle 7 days
  Relative remission rate: 50%
[2]; Example 284, Fluorouracil (5-Fu) intraperitoneal injection 175 mg/kg single, CDK inhibitor oral 100 mg/kg single, 12 h before, cycle 7 days
  Relative remission rate: 70%
[2]; Example 285, Fluorouracil (5-Fu) intraperitoneal injection 175 mg/kg single, CDK inhibitor oral 100 mg/kg single, 13 h before, cycle 7 days
  Relative remission rate: 40%
[2]; Example 286, Fluorouracil (5-Fu) intraperitoneal injection 175 mg/kg single, CDK inhibitor oral 100 mg/kg single, 14 h before, cycle 7 days
  Relative remission rate: 60%
[2]; Example 287, Fluorouracil (5-Fu) intraperitoneal injection 175 mg/kg single, CDK inhibitor oral 100 mg/kg single, 16 h before, cycle 7 days
  Relative remission rate: 50%
[2]; Example 288, Fluorouracil (5-Fu) intraperitoneal injection 175 mg/kg single, CDK inhibitor oral 100 mg/kg single, 18 h before, cycle 7 days
  Relative remission rate: 60%
[2]; Example 289, Fluorouracil (5-Fu) intraperitoneal injection 175 mg/kg single, CDK inhibitor oral 100 mg/kg single, 20 h before, cycle 7 days
  Relative remission rate: 50%
[2]; Example 290, Fluorouracil (5-Fu) intraperitoneal injection 175 mg/kg single, CDK inhibitor oral 100 mg/kg single, 22 h before, cycle 7 days
  Relative remission rate: 30%
[2]; Example 291, Fluorouracil (5-Fu) intraperitoneal injection 175 mg/kg single, CDK inhibitor oral 100 mg/kg single, 24 h before, cycle 7 days
  Relative remission rate: 30%
[2]; Example 292, Fluorouracil (5-Fu) intraperitoneal injection 175 mg/kg single, CDK inhibitor oral 100 mg/kg single, 48 h before, cycle 7 days
  Relative remission rate: 0%
[2]; Example 303, Fluorouracil and oxaliplatin intraperitoneal injection 100 (F) 10 (O) mg/kg single, CDK inhibitor oral 100 mg/kg single, 24 h before, cycle 10 days
  Relative remission rate: 40%
[2]; Example 311, Irinotecan (CPT-11) intramuscular injection 260 mg/kg single, CDK inhibitor oral 50 mg/kg single, 1 h before, cycle 7 days
  Relative remission rate: 60%
[2]; Example 314, Fluorouracil and oxaliplatin and irinotecan intraperitoneal injection 70 (F) 5 (O) 100 (I) mg/kg single, CDK inhibitor oral 180 mg/kg single, 12 h before, cycle 10 days
  Relative remission rate: 60%
[2]; Example 323, Docetaxel (DTX) intravenous injection 10 mg/kg single, CDK inhibitor oral 100 mg/kg single, 9 h before, cycle 8 days
  Relative remission rate: 60%
[2]; Example 327, Cytarabine (Ara-C) intraperitoneal injection 600 mg/kg single, CDK inhibitor oral 100 mg/kg single, 0.5 h before, cycle 8 days
  Relative remission rate: 80%
[2]; Example 328, Cytarabine (Ara-C) intraperitoneal injection 600 mg/kg single, CDK inhibitor oral 100 mg/kg single, 4 h before, cycle 8 days
  Relative remission rate: 60%
[2]; Example 329, Cytarabine (Ara-C) intraperitoneal injection 600 mg/kg single, CDK inhibitor oral 100 mg/kg single, 8 h before, cycle 8 days
  Relative remission rate: 40%
[2]; Example 330, Cytarabine (Ara-C) intraperitoneal injection 600 mg/kg single, CDK inhibitor oral 100 mg/kg single, 12 h before, cycle 8 days
  Relative remission rate: 40%
[2]; Example 331, Cytarabine (Ara-C) intraperitoneal injection 600 mg/kg single, CDK inhibitor oral 100 mg/kg single, 24 h before, cycle 8 days
  Relative remission rate: 40%
[2]; Example 332, Cytarabine (Ara-C) intraperitoneal injection 600 mg/kg single, CDK inhibitor oral 100 mg/kg single, 48 h before, cycle 8 days
  Relative remission rate: 0%
[3]; Example 411, Doxorubicin (Dox) intravenous injection 12 mg/kg single, CDK inhibitor intraperitoneal injection 100 mg/kg single, 24 h before, cycle 8 days
  Relative remission rate of other administration mode: 10%
[3]; Example 411, Doxorubicin (Dox) intravenous injection 12 mg/kg single, CDK inhibitor oral 100 mg/kg single, 24 h before, cycle 8 days
  Relative remission rate of oral administration: 30%
[3]; Example 421, Etoposide and cisplatin intraperitoneal injection 50€ 5 mg/kg single, CDK inhibitor intravenous injection 100 mg/kg single, 24 h before, cycle 7 days
  Relative remission rate of other administration mode: 10%
[3]; Example 421, Etoposide and cisplatin intraperitoneal injection 50€ 5 mg/kg single, CDK inhibitor oral 150 mg/kg single, 24 h before, cycle 7 days
  Relative remission rate of oral administration: 20%
[3]; Example 436, Gemcitabine intramuscular injection 120 mg/kg single, CDK inhibitor intramuscular injection 100 mg/kg single, 24 h before, cycle 8 days
  Relative remission rate of other administration mode: 10%
[3]; Example 436, Gemcitabine intramuscular injection 120 mg/kg single, CDK inhibitor oral 100 mg/kg single, 24 h before, cycle 8 days
  Relative remission rate of oral administration: 40%
[3]; Example 438, Gemcitabine and Carboplatin intravenous injection 120 (G) 100 (C) mg/kg single, CDK inhibitor intraperitoneal injection 100 mg/kg single, 12 h before, cycle 8 days
  Relative remission rate of other administration mode: 20%
[3]; Example 438, Gemcitabine and Carboplatin intravenous injection 120 (G) 100 (C) mg/kg single, CDK inhibitor oral 100 mg/kg single, 12 h before, cycle 8 days
  Relative remission rate of oral administration: 50%
[3]; Example 439, Gemcitabine and Carboplatin intravenous injection 120 (G) 100 (C) mg/kg single, CDK inhibitor intraperitoneal injection 100 mg/kg single, 24 h before, cycle 8 days
  Relative remission rate of other administration mode: 20%
[3]; Example 439, Gemcitabine and Carboplatin intravenous injection 120 (G) 100 (C) mg/kg single, CDK inhibitor oral 100 mg/kg single, 24 h before, cycle 8 days
  Relative remission rate of oral administration: 50%
[3]; constipation caused by doxorubicin, etoposide, etoposide plus cisplatin, carboplatin, gemcitabine, gemcitabine plus carboplatin, under certain conditions, oral most significant
  improvement of constipation by oral administration, intraperitoneal injection, intramuscular injection, local administration: can significantly improve constipation
